Molecules are shown by their SMILES. ≈ marks a conversion by molar mass, not a printed value. Where two headings read alike, the source gives them in different places.

What all share (assay type): cell-based
One test relates to P. mirabilis. The experiment in a line: In vitro MIC testing, antibacterial spectrum of activity. The note with it: Proteus mirabilis; P. mirabilis (30 isolates).
For another test, the system named is K. pneumoniae. The test is described as above. The settings on record: K. pneumoniae (31 isolates).
Another test relates to E. coli. The test is described as above. The note with it: Escherichia coli.
The subject of a further test is E. faecium. The description is as above. The note with it: Enterococcus faecium; for MIC50: read-out: MIC50; for MIC90: read-out: MIC90.
For another test, the system named is P. aeruginosa. The test is described as above. The settings on record: P. aeruginosa (11 isolates).
Another test relates to E. faecalis. Described as above. The settings on record: E. faecalis [VSE] (31 isolates).
A further test has as its system Salmonella Spp. Described as above. The note with it: Salmonella.
The test system of the next test is E. cloacae. The description is as above. The note with it: Enterobacter cloacae; E. cloacae (30 isolates).
Another test has as its system Chlamydia pneumoniae. Briefly: Susceptibility testing (MIC, MBC) of 10 isolates of C. pneumoniae in HEp-2 cells. The note with it: for MIC Range / MIC50 / MIC90: 72 h; for MIC50 / MIC90 / MBC: Chlamydia pneumoniae; for MBC / MBC 90% / MBC Range: after passage; for MBC: read-out: MBC 90%.
The subject of test [1] is Chlamydia trachomatis. Briefly: Susceptibility testing (MIC, MBC) of 10 isolates of C. trachomatis in HEp-2 cells. The settings on record: for MIC Range / MIC50 / MIC90: 72 h; for MIC50 / MIC90 / MBC: Chlamydia trachomatis; for MBC / MBC Range: after passage; for MBC: read-out: MBC 90%.
The subject of test [2] is Chlamydia trachomatis. The experiment in a line: In vitro susceptibility testing of Chlamydia trachomatis in HEp-2 cells (first study). The settings on record: Chlamydia trachomatis, C. trachomatis strains, read-out: MIC at which 90% of the strains were inhibited (MIC90).

On to `CC1(C)S[C@@H]2[C@H](NC(=O)[C@H](N)c3ccccc3)C(=O)N2[C@H]1C(=O)O` [Ampicillin], for which the MIC50 was 4 µg/mL (≈ 11.4 µM) in the test on P. mirabilis; > 64 µg/mL against K. pneumoniae (Klebsiella pneumoniae); > 64 µg/mL in the test with E. coli; > 64 µg/mL in the test with E. faecium (E. faecium [VRE] (30 isolates)); 64 µg/mL (≈ 183 µM) in the test on E. faecium (E. faecium [VSE] (32 isolates)); > 64 µg/mL against P. aeruginosa (Pseudomonas aeruginosa). Further, the MIC50 was 1 µg/mL (≈ 2.86 µM) with E. faecalis (Enterococcus faecalis, read-out: MIC50); 1 µg/mL (≈ 2.86 µM) against Salmonella Spp.; 64 µg/mL (≈ 183 µM) with E. cloacae. Besides, the MIC90 with P. mirabilis, against K. pneumoniae (Klebsiella pneumoniae), with E. coli, in the test on E. faecium (E. faecium [VRE] (30 isolates)), in the test with E. faecium (E. faecium [VSE] (32 isolates)) and with P. aeruginosa (Pseudomonas aeruginosa) was > 64 µg/mL in each case. The MIC90 was 1 µg/mL (≈ 2.86 µM) with E. faecalis (Enterococcus faecalis, read-out: MIC90); > 64 µg/mL in the test with Salmonella Spp.; > 64 µg/mL in the test with E. cloacae. Further, the entries for the “MIC Range” value against K. pneumoniae, in the test on P. aeruginosa and against E. faecalis were >64 µg/mL, >64 µg/mL and 0.5 to 8 µg/mL, respectively.

Regarding `CC[C@H]1OC(=O)[C@H](C)[C@@H](O[C@H]2C[C@@](C)(OC)[C@@H](O)[C@H](C)O2)[C@H](C)[C@@H](O[C@@H]2O[C@H](C)C[C@H](N(C)C)[C@H]2O)[C@](C)(O)C[C@@H](C)CN(C)[C@H](C)[C@@H](O)[C@]1(C)O` [Azithromycin], in the test with Chlamydia pneumoniae, the “MIC Range” value was 0.03 to 0.0625 µg/mL, the MIC50 came to 0.0625 µg/mL (≈ 0.0834 µM), the MIC90 is 0.0625 µg/mL (≈ 0.0834 µM) and the MBC was determined as 0.25 µg/mL (≈ 0.334 µM). Besides, in the test on Chlamydia pneumoniae, the “MBC 90%” value was 0.25 µg/mL (≈ 0.334 µM) and the “MBC Range” value lay in the range of 0.0625 to 0.25 µg/mL. In the test on Chlamydia trachomatis [1], the “MIC Range” value was 0.003 to 0.03 µg/mL, the MIC50 is 0.0075 µg/mL (≈ 0.01 µM), the MIC90 came out at 0.015 µg/mL (≈ 0.02 µM) and the MBC was determined as 0.015 µg/mL (≈ 0.02 µM). The “MBC Range” value against Chlamydia trachomatis [1] fell in the range of 0.007 to 0.03 µg/mL. Besides, the MIC90 with Chlamydia trachomatis [2] worked out at 0.015 µg/mL (≈ 0.02 µM).

For the molecule `C[C@H]1COc2c(N3CCN(C)CC3)c(F)cc3c(=O)c(C(=O)O)cn1c23` [Levofloxacin], in the test with Chlamydia pneumoniae, the “MIC Range” value was found to be 0.5 µg/mL (≈ 1.38 µM), the MIC50 was 0.5 µg/mL (≈ 1.38 µM), the MIC90 was found to be 0.5 µg/mL (≈ 1.38 µM) and the MBC was determined as 2 µg/mL (≈ 5.53 µM). For the same molecule, in the test on Chlamydia pneumoniae, the “MBC 90%” value came out at 2 µg/mL (≈ 5.53 µM) and the “MBC Range” value fell in the range of 0.125 to 2 µg/mL. In the test on Chlamydia trachomatis [1], the “MIC Range” value was 0.125 to 0.5 µg/mL, the MIC50 is 0.25 µg/mL (≈ 0.692 µM), the MIC90 was determined as 0.25 µg/mL (≈ 0.692 µM) and the MBC turned out to be 0.5 µg/mL (≈ 1.38 µM). Besides, the “MBC Range” value against Chlamydia trachomatis [1] was 0.125 to 1 µg/mL. Further, the MIC90 with Chlamydia trachomatis [2] turned out to be 0.25 µg/mL (≈ 0.692 µM).
